# Laboratory results: patent publication US5827860A, “Peptidyl heterocycles useful in the treatment of thrombin related disorders” (Ortho Pharmaceutical Corporation, priority 1995, dated 1998)
# Read-outs that look alike come from different tables or passages of the source.
# Key:
# [1] = Ex vivo bioavailability assay, drug administered i.v. and p.o.; conditions: male rats, p.o. vs i.v., drug in plasma extrapolated from thrombin inhibition
# Experimental: Bioavailability was determined by an ex vivo assay which incorporated hydrolysis rates from drug administered both i.v. and p.o. In this assay male rats were prepared as described above with a teflon tube implanted in their femoral artery.
# A standard curve was generated by adding of drug or vehicle (100 μL) to whole blood (900 μL) followed by incubating (5 min) and centrifuging to obtain plasma. The percentage of thrombin inhibition was calculated by comparing the V0 of the vehicle to that of the drug treated samples. Datum from several runs were normalized with a statistical package (SAS) to generate a standard curve.
# The percentage of thrombin inhibition in the treated animals was calculated by comparing the V0 prior to treatment with the V0 obtained from samples collected after treatment. The percent inhibition was applied to the standard curve (generated above) using the statistical package (SAS) and the quantity of drug in the sample was extrapolated.
# Bioavailability (Bioavail.) was calculated from the plots of the extrapolated drug in sample vs. time for both i.v. and p.o. administration using the following equation:
# %Bioavail.=(i.v. dose administered/p.o. dose administered)×(area
# under p.o. curve/area under curve i.v.)
# [2] = rat, in vivo, iv
# Experimental: (§1) An ex vivo assay was conducted to determine the duration of action of the compounds of Formula I. For this i.v. assay male rats (Long Evans, 350-500 g) were implanted with a teflon cannulae via the femoral artery while under anesthesia (pentobarbital i.p., 35 mg/kg). […] The animals were allowed to recover for at least 24 h after the surgical procedure.
# (§2) The test compound was dispersed in water and delivered to the animal (0.25 mL) via the femoral vein. […] A plasma sample was obtained by centrifuging the blood at 10,000 rpm for 5 min. This sample is analyzed for thrombin inhibition using the chromogenic assay, described below.
# (§3) Datum was collected over a 30 min period and the initial rate of substrate hydrolysis (V0 (mOD/min)) was calculated with an analysis program (Softmax, Molecular Devices).
# (§4) The time to half plasma elimination (t 1/2) was calculated from the slope of V0 vs. time, using the following equation: t 1/2=-1.6 slope.
# [3] = Ex vivo assay for duration of action after i.v. dosing (time to half plasma elimination); conditions: male rats, from slope of V0 vs. time of plasma thrombin inhibition
# Experimental: as §1, §2, §3, §4
Structure (SMILES),Bioavail. [1],t1/2 (time to half plasma elimination) [2],t1/2 (time to half plasma elimination) [3]
"CN[C@@H](C(=O)N1CCC[C@H]1C(=O)N[C@@H](CCCNC(=N)N)C(=O)c1nc2ccccc2s1)C1CCCCC1 [Compound 37, N-METHYL-D-CYCLOHEXYLGLYCYL-N-[4-[(AMINOIMINOMETHYL)AMINO]-1S-[(BENXOTHIAZOL-2-YL)CARBONYL]BUTYL]-L-PROLINAMIDE]",,42 min,
CCOC(=O)c1csc(C(=O)[C@H](CCCNC(=N)N)NC(=O)[C@@H]2CCCN2C(=O)[C@@H](Cc2ccccc2)NC)n1 [Compound 19],,14 min,
CN[C@H](Cc1ccccc1)C(=O)N1CCC[C@H]1C(=O)N[C@@H](CCCNC(=N)N)C(=O)c1nc(C(=O)O)cs1 [Compound 54],,15 min,
CNC(Cc1ccccc1)C(=O)N1CCCC1C(=O)NC(CCCNC(=N)N)C(=O)c1nccs1 (centres unmarked) [Compound 4],,16 min,
CN[C@H](Cc1c(F)c(F)c(F)c(F)c1F)C(=O)N1CCC[C@H]1C(=O)N[C@@H](CCCNC(=N)N)C(=O)c1nc2ccccc2s1 [Compound 30],,6 min,
CN[C@H](Cc1ccccc1)C(=O)N1CCC[C@H]1C(=O)N[C@@H](CCCNC(=N)N)C(=O)c1nc2ccc(O)cc2s1 [Compound 25],,,14 min
"CN[C@H](CC1CCCCC1)C(=O)N1CCC[C@H]1C(=O)N[C@@H](CCCNC(=N)N)C(=O)c1nc2ccccc2s1 [Compound 29, N-METHYL-D-CYCLOHEXYLALANYL-N-[4-[(AMINOIMINOMETHYL)AMINO]-1S-[(BENXOTHIAZOL-2-YL)CARBONYL]BUTYL]-L-PROLINAMIDE]",,14 min,
CN[C@H](Cc1ccccc1)C(=O)N1CCC[C@H]1C(=O)N[C@@H](CCCNC(=N)N)C(=O)c1nc2c(s1)CCCC2 [Compound 51],,17 min,
CN[C@H](Cc1ccccc1)C(=O)N1CCC[C@H]1C(=O)N[C@@H](CCCNC(=N)N)C(=O)c1nc2ccc(C(=O)OC)cc2s1 [Compound 12],,43 min,
CNC(C(=O)N1CCC[C@H]1C(=O)N[C@@H](CCCNC(=N)N)C(=O)c1nc2ccccc2s1)c1ccccc1 (some centres unmarked) [Compound 34],,,26 min

# Further lines, with some results ahead:
Bioavail. [1],t1/2 (time to half plasma elimination) [2],Structure (SMILES),t1/2 (time to half plasma elimination) [3]
1.2%,19 min,"CN[C@H](Cc1ccccc1)C(=O)N1CCC[C@H]1C(=O)N[C@@H](CCCNC(=N)N)C(=O)c1nc2ccccc2s1 [Compound 1, N-METHYL-D-PHENYLALANYL-N-[4-[(AMINOIMINOMETHYL)AMINO]-1S-[(BENXOTHIAZOL-2- YL)CARBONYL]BUTYL]-L-PROLINAMIDE]",
,5 min,CN[C@H](Cc1ccccc1)C(=O)N1CCC[C@H]1C(=O)N[C@@H](CCCNC(=N)N)C(=O)c1nc2ccc3ccccc3c2s1 [Compound 52],
,16 min,CN[C@H](Cc1ccccc1)C(=O)N1CCC[C@H]1C(=O)N[C@@H](CCCNC(=N)N)C(=O)c1nc2ccc(CO)cc2s1 [Compound 15],
,25 min,CN[C@H](Cc1ccccc1)C(=O)N1CCC[C@H]1C(=O)N[C@@H](CCCNC(=N)N)C(=O)c1nc2ccc(C(=O)O)cc2s1 [Compound 13],
,19 min,"CN[C@H](Cc1ccc(F)cc1)C(=O)N1CCC[C@H]1C(=O)N[C@@H](CCCNC(=N)N)C(=O)c1nc2ccccc2s1 [Compound 32, N-METHYL-D-(4-FLUOROPHENYL)ALANYL-N-[4-[(AMINOIMINOMETHYL)AMINO]-1S-[(BENXOTHIAZOL-2-YL)CARBONYL]BUTYL]-L-PROLINAMIDE]",
,8 min,CN[C@H](Cc1ccccc1)C(=O)N1CCC[C@H]1C(=O)N[C@@H](CCCNC(=N)N)C(=O)c1nc2ccc(F)cc2s1 [Compound 17],
,18 min,"CNC(C(=O)N1CCCC1C(=O)NC(CCCNC(=N)N)C(=O)c1nc2ccccc2s1)c1ccccc1 [Compound 33, N-METHYL-D-PHENYLGLYCYL-N-[4-[(AMINOIMINOMETHYL)AMINO]-1S-[(BENXOTHIAZOL-2- YL)CARBONYL]BUTYL]-L-PROLINAMIDE]",
,5 min,CNC(Cc1ccccc1)C(=O)N1CCCC1C(=O)NC(CCCNC(=N)N)C(=O)c1nc2ccccc2[nH]1 (centres unmarked) [Compound 21],
,11 min,CC(=O)N[C@H](Cc1ccccc1)C(=O)N1CCC[C@H]1C(=O)N[C@@H](CCCNC(=N)N)C(=O)c1nc2ccccc2s1.O=C(O)C(F)(F)F [Compound 35],
